According to the supplement of paper PMC11451515:

Key:
Settings in all cases: 48 h
P12-Ichikawa [1] = test: cell viability relative to DMSO control; higher = less cytotoxic
Method in brief: (§1)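 Viability was expressed as a per-plate percentage of DMSO wells, with cell-free wells as background. Leukemia cells (NOMO1 or SEM at 500 cells/well, P12-Ichikawa at 1000 cells/well) were adapted for at least four passages in each medium and seeded in 1536-well plates (5 μl). Library compounds in DMSO were pin-dosed over an 11-point threefold series from 47 μM to 0.79 nM, and CellTiter-Glo One luminescence was read after 48 h at 37°C.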

SEM cells [2] = test: as above
Method in brief: as §1

NOMO1 [3] = test: as above
Method in brief: as §1

P12-Ichikawa [4] = test: AUC of viability dose-response curve (% viability x log10 dose units); higher = less sensitive
Method in brief: (§2)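 Library compounds in DMSO were applied for 48 h at 37°C at 11 threefold doses (47 μM to 0.79 nM) to medium-adapted leukemia cells in 1536-well plates holding 500 or 1000 cells/well. Luminescence from CellTiter-Glo One was normalised plate by plate against DMSO and cell-free wells. Area under the curve came from trapezoidal integration of a log-logistic fit, after scaling curves that rose above full viability and discarding those that failed quality control. The fit had four parameters and used log10 doses.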

SEM cells [5] = test: as above
Method in brief: as §2

NOMO1 [6] = test: as above
Method in brief: as §2

OC[C@H]1O[C@H](C[C@@H]1O)N2/C=C(C(=O)NC2=O)/C(F)(F)F
cell viability [%]
Settings	NOMO1 [3]	P12-Ichikawa [1]	SEM cells [2]
HPLM + 10% dialyzed FBS, 0.000781 µM	128	120	77.4
HPLM + 10% dialyzed FBS, 0.00234 µM	120	116	95.7
HPLM + 10% dialyzed FBS, 0.00702 µM	106	119	90.9
HPLM + 10% dialyzed FBS, 0.0211 µM	116	110	89.9
HPLM + 10% dialyzed FBS, 0.0632 µM	120	117	92.3
HPLM + 10% dialyzed FBS, 0.19 µM	114	98	88.7
HPLM + 10% dialyzed FBS, 0.569 µM	82.8	75.9	72.5
HPLM + 10% dialyzed FBS, 1.71 µM	58.8	52.9	50.2
HPLM + 10% dialyzed FBS, 5.12 µM	69.7	17.4	26.2
HPLM + 10% dialyzed FBS, 15.4 µM	45	12.5	20.5
HPLM + 10% dialyzed FBS, 46.1 µM	26.5	6.49	11.8
RPMI 5 mM glucose + 10% FBS, 0.000781 µM	99.8	126	101
RPMI 5 mM glucose + 10% FBS, 0.00234 µM	117	113	104
RPMI 5 mM glucose + 10% FBS, 0.00702 µM	116	118	116
RPMI 5 mM glucose + 10% FBS, 0.0211 µM	116	114	101
RPMI 5 mM glucose + 10% FBS, 0.0632 µM	114	123	109
RPMI 5 mM glucose + 10% FBS, 0.19 µM	107	121	123
RPMI 5 mM glucose + 10% FBS, 0.569 µM	118	112	111
RPMI 5 mM glucose + 10% FBS, 1.71 µM	115	107	103
RPMI 5 mM glucose + 10% FBS, 5.12 µM	107	38.6	79.5
RPMI 5 mM glucose + 10% FBS, 15.4 µM	86.9	15.7	30.4
RPMI 5 mM glucose + 10% FBS, 46.1 µM	42.9	8.41	15.5
RPMI 5 mM glucose + 10% dialyzed FBS, 0.000781 µM	115	107	100
RPMI 5 mM glucose + 10% dialyzed FBS, 0.00234 µM	110	114	124
RPMI 5 mM glucose + 10% dialyzed FBS, 0.00702 µM	121	114	111
RPMI 5 mM glucose + 10% dialyzed FBS, 0.0211 µM	113	113	115
RPMI 5 mM glucose + 10% dialyzed FBS, 0.0632 µM	103	105	98.3
RPMI 5 mM glucose + 10% dialyzed FBS, 0.19 µM	113	107	117
RPMI 5 mM glucose + 10% dialyzed FBS, 0.569 µM	97.4	89.6	93.9
RPMI 5 mM glucose + 10% dialyzed FBS, 1.71 µM	96	93.3	66.8
RPMI 5 mM glucose + 10% dialyzed FBS, 5.12 µM	67.7	23.1	22.6
RPMI 5 mM glucose + 10% dialyzed FBS, 15.4 µM	31.3	16.8	15.5
RPMI 5 mM glucose + 10% dialyzed FBS, 46.1 µM	18.3	11.1	10.3

AUC of viability dose-response curve
Settings	NOMO1 [6]	P12-Ichikawa [4]	SEM cells [5]
HPLM + 10% dialyzed FBS	356	317	317
RPMI 5 mM glucose + 10% FBS	449	375	407
RPMI 5 mM glucose + 10% dialyzed FBS	391	371	350

Cc1ccc2nc(NCCN)c3ncc(C)n3c2c1
cell viability [%]
Settings	NOMO1 [3]	P12-Ichikawa [1]	SEM cells [2]
HPLM + 10% dialyzed FBS, 0.000781 µM	116	104	104
HPLM + 10% dialyzed FBS, 0.00234 µM	99.9	105	112
HPLM + 10% dialyzed FBS, 0.00702 µM	121	106	111
HPLM + 10% dialyzed FBS, 0.0211 µM	104	101	106
HPLM + 10% dialyzed FBS, 0.0632 µM	108	106	122
HPLM + 10% dialyzed FBS, 0.19 µM	107	104	113
HPLM + 10% dialyzed FBS, 0.569 µM	105	103	106
HPLM + 10% dialyzed FBS, 1.71 µM	101	105	101
HPLM + 10% dialyzed FBS, 5.12 µM	113	109	102
HPLM + 10% dialyzed FBS, 15.4 µM	88.7	94.8	23.2
HPLM + 10% dialyzed FBS, 46.1 µM	8.31	42.5	5.23
RPMI 5 mM glucose + 10% FBS, 0.000781 µM	88.1	97.8	111
RPMI 5 mM glucose + 10% FBS, 0.00234 µM	92.2	111	108
RPMI 5 mM glucose + 10% FBS, 0.00702 µM	91.9	105	129
RPMI 5 mM glucose + 10% FBS, 0.0211 µM	94.1	107	110
RPMI 5 mM glucose + 10% FBS, 0.0632 µM	98.1	107	122
RPMI 5 mM glucose + 10% FBS, 0.19 µM	98.4	108	119
RPMI 5 mM glucose + 10% FBS, 0.569 µM	100	102	123
RPMI 5 mM glucose + 10% FBS, 1.71 µM	87.8	104	102
RPMI 5 mM glucose + 10% FBS, 5.12 µM	90.2	102	108
RPMI 5 mM glucose + 10% FBS, 15.4 µM	84.9	97.4	86.4
RPMI 5 mM glucose + 10% FBS, 46.1 µM	11.3	23.2	5.06
RPMI 5 mM glucose + 10% dialyzed FBS, 0.000781 µM	87.9	102	94.9
RPMI 5 mM glucose + 10% dialyzed FBS, 0.00234 µM	95.8	110	110
RPMI 5 mM glucose + 10% dialyzed FBS, 0.00702 µM	104	104	94.9
RPMI 5 mM glucose + 10% dialyzed FBS, 0.0211 µM	104	105	94.5
RPMI 5 mM glucose + 10% dialyzed FBS, 0.0632 µM	99	104	101
RPMI 5 mM glucose + 10% dialyzed FBS, 0.19 µM	96	91	106
RPMI 5 mM glucose + 10% dialyzed FBS, 0.569 µM	95.6	101	111
RPMI 5 mM glucose + 10% dialyzed FBS, 1.71 µM	96.7	102	77.7
RPMI 5 mM glucose + 10% dialyzed FBS, 5.12 µM	100	103	91
RPMI 5 mM glucose + 10% dialyzed FBS, 15.4 µM	81.6	101	67.4
RPMI 5 mM glucose + 10% dialyzed FBS, 46.1 µM	7.57	33.7	4.44

AUC of viability dose-response curve
Settings	NOMO1 [6]	P12-Ichikawa [4]	SEM cells [5]
HPLM + 10% dialyzed FBS	446	458	413
RPMI 5 mM glucose + 10% FBS	422	455	440
RPMI 5 mM glucose + 10% dialyzed FBS	437	460	430

O=C(O)c1ccc(O)c2ncc(N3CCOCC3)cc12
cell viability [%]
Settings	NOMO1 [3]	P12-Ichikawa [1]	SEM cells [2]
HPLM + 10% dialyzed FBS, 0.000781 µM	90.9	106	101
HPLM + 10% dialyzed FBS, 0.00234 µM	108	105	117
HPLM + 10% dialyzed FBS, 0.00702 µM	99.9	100	128
HPLM + 10% dialyzed FBS, 0.0211 µM	103	108	110
HPLM + 10% dialyzed FBS, 0.0632 µM	99.3	107	103
HPLM + 10% dialyzed FBS, 0.19 µM	101	103	102
HPLM + 10% dialyzed FBS, 0.569 µM	109	97.2	116
HPLM + 10% dialyzed FBS, 1.71 µM	105	99.9	99.8
HPLM + 10% dialyzed FBS, 5.12 µM	97.2	98.6	73.5
HPLM + 10% dialyzed FBS, 15.4 µM	83.6	95.6	99.2
HPLM + 10% dialyzed FBS, 46.1 µM	18.9	7.44	11.4
RPMI 5 mM glucose + 10% FBS, 0.000781 µM	93.9	102	106
RPMI 5 mM glucose + 10% FBS, 0.00234 µM	91.1	99.1	109
RPMI 5 mM glucose + 10% FBS, 0.00702 µM	92.7	96.8	109
RPMI 5 mM glucose + 10% FBS, 0.0211 µM	92.1	92.8	115
RPMI 5 mM glucose + 10% FBS, 0.0632 µM	89.4	95.7	112
RPMI 5 mM glucose + 10% FBS, 0.19 µM	86.3	97.6	94.1
RPMI 5 mM glucose + 10% FBS, 0.569 µM	87.5	96.6	106
RPMI 5 mM glucose + 10% FBS, 1.71 µM	86.2	94.2	99.3
RPMI 5 mM glucose + 10% FBS, 5.12 µM	85.4	87.8	65.9
RPMI 5 mM glucose + 10% FBS, 15.4 µM	79.3	85.2	84
RPMI 5 mM glucose + 10% FBS, 46.1 µM	73.8	9.83	7.59
RPMI 5 mM glucose + 10% dialyzed FBS, 0.000781 µM	98.1	98.5	94.8
RPMI 5 mM glucose + 10% dialyzed FBS, 0.00234 µM	101	95.2	98.4
RPMI 5 mM glucose + 10% dialyzed FBS, 0.00702 µM	111	104	96
RPMI 5 mM glucose + 10% dialyzed FBS, 0.0211 µM	104	90.9	99.6
RPMI 5 mM glucose + 10% dialyzed FBS, 0.0632 µM	107	98	95
RPMI 5 mM glucose + 10% dialyzed FBS, 0.19 µM	94.2	97.7	86.2
RPMI 5 mM glucose + 10% dialyzed FBS, 0.569 µM	126	105	99
RPMI 5 mM glucose + 10% dialyzed FBS, 1.71 µM	102	102	87.4
RPMI 5 mM glucose + 10% dialyzed FBS, 5.12 µM	91.2	81.8	46.4
RPMI 5 mM glucose + 10% dialyzed FBS, 15.4 µM	104	84.7	68.9
RPMI 5 mM glucose + 10% dialyzed FBS, 46.1 µM	81.5	5.31	7.27

AUC of viability dose-response curve
Settings	NOMO1 [6]	P12-Ichikawa [4]	SEM cells [5]
HPLM + 10% dialyzed FBS	447	452	453
RPMI 5 mM glucose + 10% FBS	417	431	424
RPMI 5 mM glucose + 10% dialyzed FBS	454	435	393
